Patent US11357749B2, “Methods for treating neutropenia” (Enzychem Lifesciences Corporation, priority 2014, dated 2022)

Legend:
STAT6 = STAT6 transcriptional activity reporter (luciferase) assay in HepG2 cells; type: cell-based, human; details: HepG2, 10 ng IL-4, PLAG 0.01-10 μg/ml, 12 hours
Experimental: (§1) By using STAT6 inhibitor (S6I), it is confirmed that the reduction of Complement 3 in HepG2 cells (human hepatocyte cell line) is regulated by STAT6. […] It is also confirmed that PLAG has selective efficacy on STAT6 over STAT1. FIG. 1 presents graphs showing STAT1 and STAT6 transcriptional activity in the PLAG treated HepG2 cells. NC refers to the unstimulated control cell. For the STAT1 assay, gene transfected HepG2 (human hepatocyte cell line) is treated with 10 ng of IFN-γ and serially diluted PLAG is added (0.01 μg/ml, 0.1 μg/ml, 1 μg/ml, and 10 μg/ml as shown) to see its effect on gene expression in the stimulated cell. For the STAT6 assay, gene transfected HepG2 cells are treated with 10 ng of IL-4 and again serially diluted PLAG is added (0.01 μg/ml, 0.1 μg/ml, 1 μg/ml, and 10 μg/ml as shown) to see its effect on gene expression in the stimulated cell. The assay is carried out following 12 hours incubation of treated cells.

STAT1 = STAT1 transcriptional activity reporter assay in HepG2 cells; type: cell-based, human; details: HepG2, 10 ng IFN-γ, PLAG 0.01-10 μg/ml, 12 hours
Experimental: as §1

C3 [1] = assay: C3 protein by ELISA in HMC-1 cells; type: cell-based, human; details: HMC-1, PLAG 1, 10 and 100 μg/mL for 2 hours, 72 hours activation with 10% FBS
Experimental: In a separate experiment, human mast cells (HMC-1, 1×10^5 cell/ml) are treated with PLAG of various concentrations (1, 10 and 100 μg/mL) for 2 hours. The cells are activated for 72 hours with 10% FBS (Fetal bovine serum) containing IMDM. The decrease of C3 is confirmed by ELISA analysis of the expressed protein.

C3 [2] = assay: C3 mRNA (RT-PCR) in HepG2 cells; type: cell-based, human; details: 2 hours
Experimental: A liver cell line, HepG2 (American Type Culture Collection, ATCC, Rockville, Md.), is incubated and maintained at 37° C., 5% CO2 humid atmosphere in DMEM medium. When HepG2 cells, which are known to produce complement in culture, are treated with PLAG, the activity of complement is reduced effectively, as confirmed by RT-PCR of mRNA. In the RT-PCR, 5×10^5 number of HepG2 cells/ml are distributed into 12 well plates and induced C3 for 12 hours with 10% FCS. Then PLAG is added and further cultured for 2 hours. Cells are harvested and mRNA is isolated and RT-PCR is carried out with specific primer of C3; GAPDH is used as an internal control.

C3 [3] = assay: C3 in culture supernatant of HepG2 cells by ELISA; type: cell-based, human; details: HepG2, PLAG 1 to 100 μg/ml, IL-4 and TNF-α, 18 hr
Experimental: The incubated HepG2 cell lines are treated with PLAG (1˜100 μg/ml), followed by IL-4 and TNF-α, reacted for 1 hour, incubated for 18 hours at 37° C. and the supernatant isolated. Quantitation of the amount of C3 in the cellular culture medium (supernatant) from HepG2 cells is performed by ELISA using a commercially available monoclonal antibody (mAb, R&D Systems) and the manufacture's protocol; the results are presented in FIG. 3. C3 is expressed spontaneously under in vitro culture condition using 10% FCS added to HepG2 cells incubated for 12 hr. The cells are treated with different doses of PLAG from 1 to 100 μg/ml (Panel A, Panel B) or 10 and 100 μg/ml of S6I (Panel C), reacted with IL-4 and TNF-α for 1 hr and then incubated for 18 hr at 37° C. Cellular viability is confirmed using the WST-1 assay (Panel A).

platelets = assay: Lipopolysaccharide-induced platelet reduction in mice; type: in vivo; details: 15 hours
Experimental: Mice are injected with 100 mg/kg phenylhydrazine (PHZ), i.p., to induce anemia and reduction of platelets. 5 mg/kg PLAG is administered to the mice orally and blood samples are taken at 3 and 13 days after. In addition, for comparison, normal mice which are not treated with phenylhydrazine are prepared as a normal group, and mice treated with PHZ and olive oil instead of PLAG are prepared as a control group. The blood samples taken from the mice are treated with 0.5 ml EDTA (Minicollect tube, Greiner bio-one, Austria) and concentration of platelet is measured using automated blood sample analyzer BC-6800 (Mindray, Shenzhen, China) by number of platelet per […] (k: 1,000).
The experiment is repeated using Tamoxifen (Tam), an anticancer agent, injected at the amount of 100 mg/kg, or lipopolysaccharide (LPS), an inflammation inducer, at the amount of 1 mg/kg to induce platelet reduction. Platelet concentration is measured 15 hours after PLAG treatment. For comparison, olive oil and PBS are used instead of PLAG as controls, respectively for the Tamoxifen and lipopolysaccharide experiment.

[4] = test system: neutrophils and lymphocytes; assay: Neutrophil and lymphocyte ratio in blood of LPS-treated Balb/C mice; type: in vivo; details: LPS 1 mg/kg i.p. + PLAG 5 mg/kg oral, % of total leukocytes
Experimental: To observe the ratio of neutrophil and lymphocyte in the blood of Balb/C mice, 1 mg/kg of lipopolysaccharide (LPS) is injected to mice, i.p. to induce inflammation. 5 mg/kg of PLAG is administered to the mice orally and blood samples are taken at 3 and 13 days after. In addition, for comparison, normal mice that are not treated with PLAG, receive PBS (phosphate buffered saline) and olive oil. The blood samples taken from the mice are treated with EDTA bottle 0.5 ml (Minocollect tube, Greiner bio-one, Austria) and the level of neutrophils (NEU) and lymphocytes (LYM) as a percentage of total leukocytes is measured using automated blood sample analyzer BC-6800 (Mindray, Shenzhen, China).

neutrophils = assay: Migration of neutrophils in LPS-injected mice (blood and lymph counts); type: in vivo
Experimental: Mice are injected with bacterial lipopolysaccharide (LPS) to provoke an inflammatory response, in the presence or absence of PLAG: […]

[5] = test system: white blood cells and neutrophils; assay: Cyclophosphamide-induced neutropenia in mice, G-CSF with or without PLAG; type: in vivo; details: PLAG 25 mpk p.o. added to G-CSF 0.25 mpk i.p., cyclophosphamide-treated mice
Source text: Mice receive cyclophosphamide (100 mpk, i.p.) for a period of ten days, with or without G-CSF (0.25 mpk, i.p.) or G-CSF (0.25 mpk, i.p.) plus PLAG (25 mpk, p.o.): […]

## CCCCC/C=C\C/C=C\CCCCCCCC(=O)OC(COC(C)=O)COC(=O)CCCCCCCCCCCCCCC (racemic) [PLAG, 1-palmitoyl-2-linoleoyl-3-acetylglycerol]
STAT6
  transcriptional activity of STAT6: gradually decreased
STAT1
  STAT1 expression (transcriptional activity): no effect
C3 [1]
  decrease of C3 (ELISA): proportional to the concentration of PLAG
C3 [2]; HepG2, 1 microgram/ml
  C3 expression (RT-PCR): somewhat
C3 [2]; HepG2, 10 microgram/ml
  C3 expression (RT-PCR): entirely
C3 [3]
  expression of C3 in supernatant (ELISA): decreased dose-dependently
platelets; LPS 1 mg/kg + PLAG 1 mg/kg
  Platelet Conc.: 450.00 k/ul
platelets; LPS 1 mg/kg + PLAG 2 mg/kg
  Platelet Conc.: 553.33 k/ul
[4]
  Lymphocyte ratio: 34.6 ± 7.0%
  Neutrophil Ratio: 53.2 ± 6.3%
neutrophils; LPS + PLAG
  Neutrophil count in blood: 3.41 k/μl
  Neutrophil count in lymph: 1.48 k/μl
neutrophils; LPS + PLAG vs LPS only
  migration of neutrophils to the lymph node: inhibits migration
[5]
  increase of WBC over G-CSF alone: more than 60%
  increase of neutrophils over G-CSF alone: more than 70%
